Assay results as given in patent publication US11130769B2 (Prelude Therapeutics Incorporated, priority 2018, dated 2021).
Like-named read-outs stand apart in the source and are kept apart here.

Assays:
H929 cells = assay: Cell viability assay (H929 10 FBS); assay type: cell-based; details: Homo sapiens, NCI-H929, 24 hours, read-out: H929_10FBS IC50
How it was run: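 ATP-based luminescence (CellTiter-Glo or ATPlite 1 Step, 30-60 min at RT) gauged viability of H929 myeloma cells after 24 h compound treatment at 37 °C. Cells plated at 4000 per well in 10% FBS RPMI 1640 supplemented with pyruvate, HEPES and glucose.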

MCL-1 = MCL-1 (Homo sapiens (Human), UniProt Q07820); assay: Cell free Mcl-1:Bim affinity assay (fluorescence polarization competition); assay type: binding; details: 15 nM MCL-1, 5 nM FITC-Bim, 1 hour at room temperature, read-out: BIM_Ki
How it was run: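 Fluorescence polarization competition: 10-point 3-fold compound dilutions displaced 5 nM FITC-Bim from 15 nM MCL-1 over 1 h at room temperature. Ki was derived from the fitted IC50 using the Nikolovska-Coleska equation, with percent inhibition normalized to DMSO and positive controls.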

Sequence of MCL-1 (Q07820 whole entry): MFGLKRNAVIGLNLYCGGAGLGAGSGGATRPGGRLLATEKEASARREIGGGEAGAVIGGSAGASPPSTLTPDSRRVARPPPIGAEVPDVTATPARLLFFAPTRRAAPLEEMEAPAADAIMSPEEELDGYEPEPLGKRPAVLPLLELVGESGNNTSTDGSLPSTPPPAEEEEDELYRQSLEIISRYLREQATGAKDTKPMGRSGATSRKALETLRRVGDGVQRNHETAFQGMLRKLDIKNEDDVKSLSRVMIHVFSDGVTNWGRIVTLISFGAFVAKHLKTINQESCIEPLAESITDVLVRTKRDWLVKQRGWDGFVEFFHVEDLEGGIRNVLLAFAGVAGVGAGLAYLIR

IC50 (H929 cells) | Ki (MCL-1; class symbols) | Ki (MCL-1; numeric values) | SMILES
> 1 µM | 0.001 to 0.1 µM | – | CO[C@H]1/C=C/C[C@H](C)CC(=O)NS(=O)(=O)c2ccc3c(c2)N(C[C@@H]2CC[C@H]21)C[C@@]1(CCCc2cc(Cl)ccc21)CO3 [Example 82, (3R,6R,7S,8E,11S,22S)-6′-Chloro-7-methoxy-11-methyl-15,15-dioxo-spiro[20-oxa-15-thia-1,14-diazatetracyclo[14.7.2.03,6.019,24]pentacosa-8,16(25),17,19(24)-tetraene-22,1′-tetralin]-13-one]
< 0.5 µM | < 0.001 µM | – | CN(C)C(=O)O[C@H]1/C=C/CN(C)C2(CCC2)C(=O)NS(=O)(=O)c2ccc3c(c2)N(C[C@@H]2CC[C@H]21)C[C@@]1(CCCc2cc(Cl)ccc21)CO3 [Example 48, [(3R,6R,7R,8E,22S)-6′-Chloro-11-methyl-12,12-(1,3-propylene)-13,15,15-trioxo-spiro[20-oxa-15-thia-1,11,14-triazatetracyclo[14.7.2.03,6.019,24]pentacosa-8,16,18,24-tetraene-22,1′-tetralin]-7-yl] N,N-dimethylcarbamate]
> 1 µM | 0.001 to 0.1 µM | – | COCC[C@H]1C(=O)NS(=O)(=O)c2ccc3c(c2)N(C[C@@H]2CC[C@H]2[C@H](OC)/C=C/C[C@@H]1C)C[C@@]1(CCCc2cc(Cl)ccc21)CO3 [Example 89, (3R,6R,7R,8E,11S,12R,22S)-6′-Chloro-7-methoxy-12-(2-methoxyethyl)-1-methyl-15,15-dioxo-spiro[20-oxa-15-thia-1,14-diazatetracyclo[14.7.2.03,6.019,24]pentacosa-8,16,18,24-tetraene-22,1′-tetralin]-13-one]
< 0.5 µM | < 0.001 µM | – | CN(C)C(=O)CO[C@H]1/C=C/COC(C)(C)C(=O)NS(=O)(=O)c2ccc3c(c2)N(C[C@@H]2CC[C@H]21)C[C@@]1(CCCc2cc(Cl)ccc21)CO3 [Example 140, 2-[(3R,6R,7S,8E,22S)-6′-Chloro-12,12-dimethyl-13,15,15-trioxo-spiro[11,20-dioxa-15-thia-1,14-diazatetracyclo[14.7.2.03,6.019,24]pentacosa-8,16,18,24-tetraene-22,1′-tetralin]-7-yl]oxy-N,N-dimethyl-acetamide]
< 0.5 µM | < 0.001 µM | – | CON(C)C(=O)O[C@H]1/C=C/COC(C)(C)C(=O)NS(=O)(=O)c2ccc3c(c2)N(C[C@@H]2CC[C@H]21)C[C@@]1(CCOc2cc(Cl)ccc21)CO3 [Example 306, [(3R,6R,7S,8E,22S)-7′-Chloro-12,12-dimethyl-13,15,15-trioxo-spiro[11,20-dioxa-15-thia-1,14-diazatetracyclo[14.7.2.03,6.019,24]pentacosa-8,16,18,24-tetraene-22,4′-chromane]-7-yl] N-methoxy-N-methyl-carbamate]
> 1 µM | < 0.001 µM | – | CO[C@@H]1/C=C/C[C@H](C)[C@@H](CC(=O)N2CC(F)(F)C2)C(=O)NS(=O)(=O)c2ccc3c(c2)N(C[C@@H]2CC[C@H]21)C[C@@]1(CCCc2cc(Cl)ccc21)CO3 [Example 90, (3R,6R,7R,8E,11S,12R,22S)-6′-Chloro-12-[2-(3,3-difluoroazetidin-1-yl)-2-oxo-ethyl]-7-methoxy-11-methyl-15,15-dioxo-spiro[20-oxa-15-thia-1,14-diazatetracyclo[14.7.2.03,6.019,24]pentacosa-8,16,18,24-tetraene-22,1′-tetralin]-13-one]
< 0.5 µM | < 0.001 µM | – | CCN1C/C=C/[C@H](OC(=O)N2CC(NC)C2)[C@@H]2CC[C@H]2CN2C[C@@]3(CCCc4cc(Cl)ccc43)COc3ccc(cc32)S(=O)(=O)NC(=O)C1(C)C [Example 223, [(3R,6R,7S,8E,22S)-6′-Chloro-11-ethyl-12,12-dimethyl-13,15,15-trioxo-spiro[20-oxa-15-thia-1,11,14-triazatetracyclo[14.7.2.03,6.019,24]pentacosa-8,16,18,24-tetraene-22,1′-tetralin]-7-yl] 3-(methylamino)azetidine-1-carboxylate]
< 0.5 µM | < 0.001 µM | – | CN(C(=O)O[C@H]1/C=C/COC2(CCC2)C(=O)NS(=O)(=O)c2ccc3c(c2)N(C[C@@H]2CC[C@H]21)C[C@@]1(CCCc2cc(Cl)ccc21)CO3)C1COC1 [Example 235, [(3R,6R,7S,8E,22S)-6′-Chloro-12,12-(1,3-propylene)-13,15,15-trioxo-spiro[11,20-dioxa-15-thia-1,14-diazatetracyclo[14.7.2.03,6.019,24]pentacosa-8,16,18,24-tetraene-22,1′-tetralin]-7-yl] N-methyl-N-(oxetan-3-yl)carbamate]
> 1 µM | 0.001 to 0.1 µM | – | CO[C@@H]1/C=C/CNC(=O)NS(=O)(=O)c2ccc3c(c2)N(C[C@@H]2CC[C@H]21)C[C@@]1(CCCc2cc(Cl)ccc21)CO3 [Example 131, (3R,6R,7R,8E,21S)-6′-chloro-7-methoxy-14,14-dioxo-spiro[19-oxa-14-thia-1,11,13-triazatetracyclo[13.7.2.03,6.018,23]tetracosa-8,15,17,23-tetraene-21,1′-tetralin]-12-one]
< 0.5 µM | 0.001 to 0.1 µM | – | CC1(C)OC/C=C/[C@H](OC(=O)NCCN2CCCCC2)[C@@H]2CC[C@H]2CN2C[C@@]3(CCCc4cc(Cl)ccc43)COc3ccc(cc32)S(=O)(=O)NC1=O [Example 193, [(3R,6R,7S,8E,22S)-6′-Chloro-12,12-dimethyl-13,15,15-trioxo-spiro[11,20-dioxa-15-thia-1,14-diazatetracyclo[14.7.2.03,6.019,24]pentacosa-8,16,18,24-tetraene-22,1′-tetralin]-7-yl] N-[2-(1-piperidyl)ethyl]carbamate]
< 0.5 µM | < 0.001 µM | – | CC1(C)OC/C=C/[C@H](OC(=O)N2CCC(O)CC2)[C@@H]2CC[C@H]2CN2C[C@@]3(CCCc4cc(Cl)ccc43)COc3ccc(cc32)S(=O)(=O)NC1=O [Example 190, [(3R,6R,7S,8E,22S)-6′-Chloro-12,12-dimethyl-13,15,15-trioxo-spiro[11,20-dioxa-15-thia-1,14-diazatetracyclo[14.7.2.03,6.019,24]pentacosa-8,16,18,24-tetraene-22,1′-tetralin]-7-yl] 4-hydroxypiperidine-1-carboxylate]
< 0.5 µM | < 0.001 µM | – | CN1CC[C@@H](NC(=O)O[C@H]2/C=C/COC(C)(C)C(=O)NS(=O)(=O)c3ccc4c(c3)N(C[C@@H]3CC[C@H]32)C[C@@]2(CCCc3cc(Cl)ccc32)CO4)C1 [Example 152, [(3R,6R,7S,8E,22S)-6′-Chloro-12,12-dimethyl-13,15,15-trioxo-spiro[11,20-dioxa-15-thia-1,14-diazatetracyclo[14.7.2.03,6.019,24]pentacosa-8,16,18,24-tetraene-22,1′-tetralin]-7-yl] N-[(3R)-1-methylpyrrolidin-3-yl]carbamate]
> 1 µM | – | 0.0087 µM | Cc1cc(CC(=O)NS(=O)(=O)c2ccc3c(c2)N(CC2CCC2)C[C@@]2(CCCc4cc(Cl)ccc42)CO3)nn1C [Example 15, 2-(1,5-Dimethylpyrazol-3-yl)-N-[(3S)-6′-chloro-5-(cyclobutylmethyl)spiro[2,4-dihydro-1,5-benzoxazepine-3,1′-tetralin]-7-yl]sulfonyl-acetamide]
